Entries after “also recorded” stand apart in the source; their conditions may differ.
Experiments:
[1] = system: S. aureus, P. aeruginosa, E. coli, C. albicans and A. niger; experiment: Compliance with USP and/or Ph. Eur. preservative efficacy standards (Table 1); assay type: cell-based; details: for meeting European Pharmacopoeia 5.0 (Ph. Eur. B) standards as sole preservative: without any other preservative
Method: (§1) Antimicrobial preservative effectiveness as set forth by the examples infra was determined using an organism challenge test according to the methods described in the United States Pharmacopoeia 24 (USP) for category 1A products, and in European Pharmacopoeia 5.0 (Ph. Eur.) for parenteral and ophthalmic preparations. […] The samples were then pulled at specified intervals to determine if the antimicrobial preservative system was capable of killing or inhibiting the propagation of organisms purposely introduced into the formulation. The rate or level of antimicrobial activity determines compliance with the USP and/or Ph. Eur. preservative efficacy standards for the cited categories of preparations.
(§2) Relative to fungi, the USP standards require that the compositions maintain stasis (i.e., no growth) relative to the population of the initial inoculum over the entire 28 day test period. A category 1A product is an injection, or other parenteral including emulsions, otic, sterile nasal products and ophthalmic products made with aqueous bases or vehicles.
(§3) The margin of error in calculating microorganism populations is generally accepted to be +/−0.5 logs. Accordingly, the term “stasis”, as utilized herein relative to the above-discussed USP standards, means that the initial population cannot increase by more than 0.5 log orders, relative to the initial population.
(§4) As cited by Table 1, the Ph. […] Regarding fungi, the Ph.

[2] = cited from earlier work
[3] = system: Pseudomonas aeruginosa ATCC 9027; experiment: Antimicrobial preservative effectiveness organism challenge test (USP 24 / Ph. Eur. 5.0); assay type: cell-based; details: P. aeruginosa, 0.05 w/v % in Table 2 formulation, pH 7.5
Method: as §1, §2, §3, §4

[4] = system: Escherichia coli ATCC 8739; experiment: as above; assay type: cell-based; details: E. coli, 0.05 w/v % in Table 2 formulation, pH 7.5
Method: as §1, §2, §3, §4

[5] = system: Aspergillus niger ATCC 16404; experiment: as above; assay type: cell-based; details: A. niger, 7 days; 0.05 w/v % in Table 2 formulation, pH 7.5
Method: as §1, §2, §3, §4

[6] = system: Candida albicans ATCC 10231; experiment: as above; assay type: cell-based
Method: as §1, §2, §3, §4

[7] = system: Staphylococcus aureus ATCC 6538; experiment: as above; assay type: cell-based; details: S. aureus, pH 7.5
Method: as §1, §2, §3, §4

CCCCCCCCN1CCCC1=O [N-Octyl-2-Pyrrolidone, N-octyl-2-pyrrolidone]
kill of both gram-negative and gram-positive bacteria ([1]; 0.05% composition, in six hours): essentially complete kill
meeting European Pharmacopoeia 5.0 (Ph. Eur. B) standards as sole preservative [1]: provided sufficient preservation to comply; also recorded: effective as a sole preservative
meeting United States Pharmacopoeia 24 standards as sole preservative ([1]; without any other preservative or preservative aid, isotonic pH 7.5 formulation): provided sufficient preservation to comply
soluble in water up to [2]: up to 0.124%
Log Order Reductions ([3]; 6 hours): 4.9 log order
Log Order Reductions ([3]; 24 hours): 4.9 log order
Log Order Reductions ([3]; 7 days): 4.9 log order
Log Order Reductions ([4]; 6 hours): 5.0 log order
Log Order Reductions ([4]; 24 hours): 5.0 log order
Log Order Reductions ([4]; 7 days): 5.0 log order
Log Order Reductions [5]: 0.7 log order
kill of Candida albicans ([6]; 0.05% composition, in 7 days): essentially complete kill
Log Order Reductions ([6]; C. albicans, 7 days, 0.05 w/v % in Table 2 formulation, pH 7.5): 4.8 log order
Log Order Reductions ([7]; 6 hours, 0.05 w/v % in Table 2 formulation (propylene glycol 1.8, phosphate)): 4.9 log order
Log Order Reductions ([7]; 24 hours, 0.05 w/v % in Table 2 formulation): 4.9 log order
Log Order Reductions ([7]; 7 days, 0.05 w/v % in Table 2 formulation): 4.9 log order

CCCCCCCCCCCCN1CCCC1=O [N-dodecyl-2-pyrrolidone]
meeting European Pharmacopoeia 5.0 (Ph. Eur. B) standards as sole preservative [1]: requires a second anti-microbial agent; also recorded: insufficient as a sole agent for preservation
solubility limited in aqueous solutions to ([2]; aqueous solutions, unless enhanced by another surfactant): ≤ 0.002%
soluble in water up to [2]: up to 0.002%
